According to patent US5245034A, “Compound having vessel smooth muscle relaxation activity” (Hidaka; Kiroyoshi, priority 1988, dated 1993):

Experiments:
[1] = system: washed platelets; test: Platelet Agglutination Inhibition (P.A.), collagen-induced; assay type: cell-based, human (healthy person); details: Homo sapiens, washed platelets, collagen, 37° C., read-out: P.A. (IC50)
Description: To this suspension was added one sixth volume of ACD solution, and the whole was further centrifuged at 1500×G for 5 minutes to prepare a platelet pellet. The platelet pellet was then suspended in a modified HEPES Tyrode solution to obtain about 3×10^5 /μl in washed platelet suspension.
To 270 μl of the washed platelet suspension was added 3 μl of a solution of a test compound dissolved in an appropriate medium in different concentration, and the mixture was pre-incubated at 37° C. for 2 minutes.
As a control, the above-mentioned procedure was carried out except that the test medium without a test compound was used, and the absorbance before addition of collagen and the maximum absorbance after addition of collagen were measured, and the difference between both absorbances was taken as 100% agglutination.
For test compound, the absorbance before an addition of collagen and the maximum absorbance after an addition of collagen were measured, and a percent of the inhibition was determined, compared with the control.

[2] = system: superior mesenteric artery (contracted by potassium chloride); test: Vessel Smooth Muscle Relaxation Action (V.R.); assay type: cell-based, rabbit; details: Oryctolagus cuniculus; concentration relaxing KCl-contracted strain to 50%; cumulative administration; read-out: V.R. (ED50)
Source text: The specimen was suspended by loading a strain in Krebs-Henseleit solution through which an oxygen gas containing 5% carbon dioxide was bubbled. The specimen was contracted by adding potassium chloride to maintain a predetermined strain. Thereafter, a test compound was cumulatively administrated.

[3] = target: Calmodulin-Dependent Phosphodiesterase (Ca^2+ PDE); test: Calmodulin-Dependent Phosphodiesterase Inhibition (Ca^2+ PDE); assay type: biochemical, rat; details: [^3 H]-cGMP, 30° C.
Description: Phosphodiesterase (Ca^2+ PDE)Ca^2+ PDE was partially purified from the brain of rat by DEAE-Sepharose column chromatography.
Calmodulin was purified from the calf brain using a calmodulin inhibitor W-7 affinity column.
A reaction mixture contained 20 μl of 500 mM Tris-HCl (pH 8.0), 20 μl of 50 mM MgCl2, 20 μl of 2 mM CaCl2 (or 10 mM EGTA), 20 μl of 1 mg/ml bovine serum albumin, PDE, […] of calmodulin, test sample and distilled water to make total volume 200 μl. To the mixture was added 20 μl of 4 μM [^3 H]-cGMP (2.5 μCi/ml), the mixture was incubated at 30° C. for 15 minutes, and then heated in boiling water for 3 to 5 minutes to terminate the reaction, and cooled in ice-water bath. 20 μg of 5'-nucleotidase (Snake venum) was added to the mixture, and the mixture was again incubated at 30° C. for 10 minutes. After addition of about 2 ml of water, the sample was applied to a cation exchange resin column (Biorad AG.AG50W-X4 to adsorbe the [^3 H]-guanosine and additionally about 2 ml of washing water for the sample was added to the column. The column was washed with about 20 ml of water, and the adsorbed [^3 H]-guanosine was eluted with 3 ml of 3N NH4 OH, and the elute was directly received by a vial. After an addition of 10 ml of an emulsified scintillation solution (ACS-II, AMERSHAM) the radio activity was measured by a scintillation counter LS7500 (Beckmann). The enzyme activity in the presence of calmodulin was taken as […], and a concentration of a test compound in μM which provides a 50% inhibition was expressed as IC50.

Row | SMILES | IC50 [1] [µM] | EC50 [2] [µM] | IC50 [3] [µM]
1 | Cc1ccc(S(=O)(=O)N(C)c2ccc(CC(C(=O)N3CCN(c4ccccc4)CC3)N(C)S(=O)(=O)c3cccc4cnccc34)cc2)cc1 (stereo not shown) [Example 26, 1-{N-(5-isoquinolinesulfonyl)-N-methyl-p-[N'-methyl-N'-(p-toluenesulfonyl)amino]phenylalanyl}-4-phenylpiperazine] | 10 |  | 
2 | O=C(OCc1ccccc1)N1CCN(C(=O)[C@H](Cc2ccc(O)cc2)NS(=O)(=O)c2cccc3cnccc23)CC1 [Example 29, 1-Benzyloxycarbonyl-4-[N-(5-Isoquinolinesulfonyl)Tyrosyl]Piperazine] | 73 | 7.6 | 
3 | O=S(=O)(NC(Cc1ccc(O)cc1)CN1CCN(c2ncccn2)CC1)c1cccc2cnccc12 (stereo not shown) [Example 40, N-{1-(p-hydroxybenzyl)-2-[4-(2-pyrimidyl)piperazinyl]ethyl}-5-isoquinolinesulfonamide] | 4.7 |  | 
4 | CN(C(Cc1ccc(OS(=O)(=O)c2cccc3cnccc23)cc1)CN1CCN(c2ncccn2)CC1)S(=O)(=O)c1cccc2cnccc12 (stereo not shown) [Example 41, N-{1-[p-(5-isoquinolinesulfonyloxy)benzyl]-2-[4-(2-pyrimidyl)piperazinyl]ethyl}-N-methyl-5-isoquinolinesulfonamide] | 10 | 1.8 | 
5 | CN(C(Cc1ccc(O)cc1)CN1CCN(c2ccc(F)cc2)CC1)S(=O)(=O)c1cccc2cnccc12 (stereo not shown) [Example 50, N-{1-(p-hydroxybenzyl)-2-[4-(p-fluorophenyl)piperazinyl]ethyl}-N-methyl-5-isoquinolinesulfonamide] | 70 | 0.67 | 
6 | CN(C(Cc1ccc(OS(=O)(=O)c2cccc3cnccc23)cc1)CN1CCN(C(=O)OCc2ccccc2)CC1)S(=O)(=O)c1cccc2cnccc12 (stereo not shown) [Example 60, N-{2-(4-Benzyloxycarbonylpiperazinyl)-1-[P-(5-Isoquinolinesulfonyloxy)Benzyl]Ethyl}-N-Methyl-5-Isoquinolinesulfonamide] | 10 |  | 
7 | CN(C(Cc1ccc(OS(=O)(=O)c2cccc3cnccc23)cc1)CN1CCN(S(=O)(=O)c2ccccc2)CC1)S(=O)(=O)c1cccc2cnccc12 (stereo not shown) [Example 61, N-{2-[(4-Benzenesulfonyl)Piperazinyl]-1-[P-(5-Isoquinolinesulfonyloxy)Benzyl]Ethyl}-N-Methyl-5-Isoquinolinesulfonamide] | 10 |  | 
8 | O=C(OCc1ccccc1)N1CCN(CC(Cc2ccc(O)cc2)NS(=O)(=O)c2cccc3cnccc23)CC1 (stereo not shown) [Example 68, N-[2-(4-benzyloxycarbonylpiperazinyl)-1-(p-hydroxybenzyl)ethyl]-5-isoquinolinesulfonamide] | 6 | 3.3 ± 1.4 | 
9 | O=C(NCc1ccccc1)N1CCN(CC(Cc2ccc(O)cc2)NS(=O)(=O)c2cccc3cnccc23)CC1 (stereo not shown) [Example 71, N-[2-(4-benzylaminocarbonylpiperazinyl)-1-(p-hydroxybenzyl)ethyl]-5-isoquinolinesulfonamide] | 93 | 14 | 
10 | CN(C(Cc1ccc(OS(=O)(=O)c2cccc3cnccc23)cc1)CN1CCN(C(=O)c2ccccc2)CC1)S(=O)(=O)c1cccc2cnccc12 (stereo not shown) [Example 74, N-{2-(4-Benzoylpiperazinyl)-1-[P-(5-Isoquinolinesulfonyloxy)Benzyl]Ethyl}-N-Methyl-5-Isoquinolinesulfonamide] | 2.8 |  | 
11 | CN(Cc1ccccc1)C1CCN(CC(Cc2ccc(O)cc2)N(C)S(=O)(=O)c2cccc3cnccc23)CC1 (stereo not shown) [Example 97, N-{2-[4-(N-Benzyl-N-Methylamino)Piperidino]-1-(P-Hydroxybenzyl)Ethyl}-N-Methyl-5-Isoquinolinesulfonamide] | 39 |  | 
12 | CN(C(Cc1ccc(O)cc1)CN1CCCNCC1)S(=O)(=O)c1cccc2cnccc12 (stereo not shown) [Example 114, N-[1-(p-hydroxy)benzyl-2-homopiperazinylethyl]-N-methyl-5-isoquinolinesulfonamide] | 100 | 54 | 
13 | O=C(OCc1ccccc1)N1CCCN(C(=O)[C@H](Cc2ccc(O)cc2)NS(=O)(=O)c2cccc3cnccc23)CC1 [Example 123, 1-Benzyloxycarbonyl-4-[N-(5-Isoquinolinesulfonyl)Tyrosyl]Homopiperazine] | 22 | 4.8 | 
14 | COc1ccc(N2CCN(CC(Cc3ccc(N4C(=O)c5ccccc5C4=O)cc3)N(C)S(=O)(=O)c3cccc4cnccc34)CC2)cc1 (stereo not shown) [Example 126, N-{2-[4-(P-Methoxyphenyl)Piperazinyl]-1-(P-Phthalimidebenzyl)Ethyl}-N-Methyl-5-Isoquinolinesulfonamide] | 10 |  | 
15 | COc1ccc(N2CCN(CC(Cc3ccc(N)cc3)NS(=O)(=O)c3cccc4cnccc34)CC2)cc1 (stereo not shown) [Example 127, N-{1-(p-aminovenzyl)-2-[4-(p-methoxyphenyl)piperazinyl]ethyl}-5-isoquinolinesulfonamide] | 39 |  | 
16 | O=S(=O)(Nc1ccccc1NCC=Cc1cccnc1)c1cccc2cnccc12 [Example 145, N-{2-[3-(3-pyridyl)allylamino]phenyl}-5-isoquinolinesulfonamide] | 12 |  | 

Row | SMILES | IC50 [1] [µM] | EC50 [2] [µM] | IC50 [3] [µM]
17 | O=S(=O)(Nc1ncccc1NCC=Cc1ccc(Cl)cc1)c1cccc2cnccc12 [Example 147, 3-(4-Chlorocinnamylamino)-2-(5-Isoquinolinesulfonylamino)Pyridine] |  | 1.2 | 42
18 | CC(C=Cc1ccc(Cl)cc1)NCCNS(=O)(=O)c1cccc2cnccc12 (stereo not shown) [Example 153] | 25 | 1.5 | 
19 | CC(C=Cc1ccccc1)NCCNS(=O)(=O)c1cccc2cnccc12 (stereo not drawn) [Example 154, N-[2-(α-Methylcinnamylamino)Ethyl]-5-Isoquinolinesulfonamide] | 60 |  | 
20 | CC(C=Cc1ccc(F)cc1F)NCCNS(=O)(=O)c1cccc2cnccc12 (stereo not shown) [Example 155] | 55 | 4.1 | 
21 | CC(C=Cc1ccccc1[N+](=O)[O-])NCCNS(=O)(=O)c1cccc2cnccc12 (stereo not shown) [Example 158] |  | 17 | 21
22 | Cc1ccc(C=CC(C)NCCNS(=O)(=O)c2cccc3cnccc23)cc1 (stereo not shown) [Example 160] | 56 | 1.8 | 
23 | O=S(=O)(NCCNCC=Cc1ccc(F)cc1)c1cccc2cnccc12 [Example 175, N-[2-(4-Fluorocinnamylamino)ethyl]-5-Isoquinolinesulfonamide] |  | 2 | 13
24 | COc1ccc(C=CCNCCNS(=O)(=O)c2cccc3cnccc23)cc1 [Example 178, N-[2-(4-Methoxycinnamylamino)ethyl]-5-Isoquinolinesulfonamide] |  | 2.4 | 50
25 | O=S(=O)(NCCNCC=CC=Cc1ccc(C(F)(F)F)cc1)c1cccc2cnccc12 [Example 180, N-{2-[5-(4-Trifluoromethylphenyl)-2,4-Pentadienylamino]Ethyl}-5-Isoquinolinesulfonamide] |  | 1.8 | 4.8
26 | O=S(=O)(NCCNCC=Cc1cccc2ccccc12)c1cccc2cnccc12 [Example 184, N-{2-[3-(1-Naphthyl)-2-Propenylamino]ethyl}-5-Isoquinolinesulfonamide] |  | 2.8 | 12
27 | O=S(=O)(NCCNCC#Cc1ccc(Cl)cc1)c1cccc2cnccc12 [Example 189-I, N-{2-[3-(4-Chlorophenyl)-2-Propynylamino]Ethyl}-5-Isoquinolinesulfonamide] |  | 0.22 | 2.7
28 | O=S(=O)(c1cccc2cnccc12)N(CC#Cc1ccc(Cl)cc1)CCNCC#Cc1ccc(Cl)cc1 [Example 189-III] |  | 0.29 | 1
29 | O=S(=O)(c1cccc2cnccc12)N1CCN(CC=Cc2ccc(Cl)cc2)CC1 [Example 191, 1-(4-Chlorocinnamyl)-4-(5-Isoquinolinesulfonyl)Piperazine] |  | 1.9 | 26
30 | CCN(CC=Cc1ccc(Cl)cc1)CCN(CC)S(=O)(=O)c1cccc2cnccc12 [Example 192, N-Ethyl-N-[2-(4-Chloro-N-Ethylcinnamylamino)Ethyl]-5-Isoquinolinesulfonamide] |  | 0.12 | 84
31 | O=CN(CC=Cc1ccc(Cl)cc1)CCNS(=O)(=O)c1cccc2cnccc12 [Example 193, N-[2-(4-Chloro-N-Formylcinnamylamino)ethyl]-5-Isoquinolinesulfonamide] |  | 3.2 | 12
